Measurements published in patent US10104891B2 (priority 2014, dated 2018).

Experiments:
Assay type in all cases: in vivo
Phytophthora infestans = test: whole plant or invertebrate; details: for control value (Test 1): tomato late blight, control value vs untreated section; for pest or weed control at 4 µg/mL: Phytophthora infestans, in Solanum lycopersicum, 96 h, read-out: control value (Test 1)
[1] = test system: Pseudoperonospora cubensis; test: Test 2: control effect against cucumber downy mildew; details: control value vs untreated section; for pest or weed control at 4 µg/mL: Pseudoperonospora cubensis, 120 h
Protocol: (§1) A 10% wettable powder created according to the Pharmaceutical Formulation Example 1 was diluted with a Tween20 solution prepared to a concentration of 1/5000, then the compound of formula [1] was prepared to a concentration of 4 ppm. Further, the compound of formula [1] in Test 4 was adjusted to a concentration of 1,000 ppm.
<Test 2 Test of Control Effect Against Cucumber Downy Mildew>
(§2) Test suspension was applied to cucumber at the 2 leaf stage (species: Sagami hanjiro) in an amount of 20 ml per seedling. One day after application, zoospore suspension of Pseudoperonospora cubensis adjusted to a concentration of 1.0×10^4 units/ml was misted/inoculated, and the seedlings were incubated in a moist chamber adjusted to 22° C. for 16 hr. Then, the onset of the disease was induced in the chamber, and the lesion area rate on the leaves 5 days after inoculation was investigated to compute the control value using the formula below. control value={1−onset area rate of the leaves that were applied the test agent/onset area rate of untreated leaves}×100 Computational formula of the control value: […]

Plasmopara viticola = test: Test 3: control effect against grape downy mildew; details: control value vs untreated section; for pest or weed control at 4 µg/mL: Plasmopara viticola, 120 h
Protocol: as §1
<Test 3 Test of Control Effect Against Grape Downy Mildew>
as §2, with “grape seedling” for “cucumber at the 2 leaf stage”, “Neomuscat)” for “Sagami hanjiro)”, “Plasmopara viticola” for “Pseudoperonospora cubensis”

SMILES	control value (Test 1) (Phytophthora infestans)	control value (Test 2) [1]	control value (Test 3) (Plasmopara viticola)	pest or weed control at 4 µg/mL (Phytophthora infestans) [%]	pest or weed control at 4 µg/mL [1] [%]	pest or weed control at 4 µg/mL (Plasmopara viticola) [%]
O=C(Cn1nc(C(F)F)cc1C(F)F)N1CCC(c2nc(C3OCc4cccc([N+](=O)[O-])c4CO3)cs2)CC1 (stereo not drawn) [Compound 1-126]	100	100	100	–	–	–
COc1ccc(C)c2c1COC(c1csc(C3CCN(C(=O)Cc4cc(Cl)ccc4Cl)CC3)n1)OC2 (stereo not drawn) [Compound 2-46]	100	100	100	–	–	–
Cc1cc(C(F)(F)F)nn1CC(=O)N1CCC(c2nc(C3OCc4ccc(Br)cc4CO3)cs2)CC1 (stereo not drawn) [Compound 1-98]	100	100	100	–	–	–
CS(=O)(=O)Oc1ccc2c(c1)COC(c1csc(C3CCN(C(=O)Cn4nc(C(F)(F)F)cc4C(F)(F)F)CC3)n1)OC2 (stereo not drawn) [Compound 1-139]	100	100	100	–	–	–
COC(=O)Oc1cccc2c1COC(c1csc(C3CCN(C(=O)Cn4nc(C(F)(F)F)cc4C)CC3)n1)OC2 (stereo not drawn) [Compound 1-37]	100	100	100	–	–	–
Cc1cc(OS(C)(=O)=O)c2c(c1C)COC(c1csc(C3CCN(C(=O)Cn4nc(C(F)F)cc4C(F)F)CC3)n1)OC2 (stereo not drawn) [Compound 1-121]	100	100	100	–	–	–
CS(=O)(=O)Oc1ccc([N+](=O)[O-])c2c1COC(c1csc(C3CCN(C(=O)Cc4cc(Cl)ccc4Cl)CC3)n1)OC2 (stereo not drawn) [Compound 2-34]	90	100	100	–	–	–
CCS(=O)(=O)Oc1cccc2c1COC(c1csc(C3CCN(C(=O)Cn4nc(C(F)(F)F)cc4C)CC3)n1)OC2 (stereo not drawn) [Compound 1-7]	100	100	100	–	–	–
Cc1cc(OS(C)(=O)=O)c2c(c1C)COC(c1csc(C3CCN(C(=O)Cn4nc(C(F)(F)F)cc4C)CC3)n1)OC2 (stereo not drawn) [Compound 1-64]	100	100	100	–	–	–
Cc1cc(C(F)(F)F)nn1CC(=O)N1CCC(c2nc(C3OCc4cccc(F)c4CO3)cs2)CC1 (stereo not drawn) [Compound 1-2]	100	100	100	–	–	–
Cc1cc(C(F)(F)F)nn1CC(=O)N1CCC(c2nc(C3OCc4ccccc4CO3)cs2)CC1 [Compound 1-1]	100	100	100	–	–	–
O=C(Cn1nc(C(F)(F)F)cc1C(F)(F)F)N1CCC(c2nc(C3OCc4cccc(OC(F)F)c4CO3)cs2)CC1 (stereo not drawn) [Compound 1-137]	100	100	100	–	–	–
Cc1ccc2c(c1)COC(c1csc(C3CCN(C(=O)Cn4nc(C(F)(F)F)cc4C)CC3)n1)OC2 (stereo not drawn) [Compound 1-20]	100	100	100	–	–	–
CCCCS(=O)(=O)Oc1cccc2c1COC(c1csc(C3CCN(C(=O)Cn4nc(C(F)F)cc4C(F)F)CC3)n1)OC2 (stereo not drawn) [Compound 1-54]	100	100	100	–	–	–
COc1ccc(OS(C)(=O)=O)c2c1COC(c1csc(C3CCN(C(=O)Cn4nc(C)cc4C)CC3)n1)OC2 (stereo not drawn) [Compound 1-115, 4-[4-(6-methoxy-9-methylsulfonyloxy-1,5-dihydro-3H-2,4-benzodioxepin-3-yl)-2-thiazolyl]-1-[2-[3,5-dimethyl-1H-pyrazole-1-yl]acetyl]piperidine]	–	–	–	100	100	100
Cc1cc(C)n(CC(=O)N2CCC(c3nc(C4OCc5c(F)ccc(OS(C)(=O)=O)c5CO4)cs3)CC2)n1 (stereo not drawn) [Compound 1-120]	100	100	100	–	–	–
CS(=O)(=O)Oc1ccc(Br)c2c1COC(c1csc(C3CCN(C(=O)Cn4nc(C(F)(F)F)cc4C(F)(F)F)CC3)n1)OC2 (stereo not drawn) [Compound 1-123, 4-[4-(6-bromo-9-methylsulfonyloxy-1,5-dihydro-3H-2,4-benzodioxepin-3-yl)-2-thiazolyl]-1-[2-[3,5-bis(trifluoromethyl)-1H-pyrazole-1-yl]acetyl]piperidine]	–	–	–	100	100	100
COc1ccc(OS(C)(=O)=O)c2c1COC(c1csc(C3CCN(C(=O)Cn4nc(C(F)(F)F)cc4C(F)(F)F)CC3)n1)OC2 (stereo not drawn) [Compound 1-117]	100	100	100	–	–	–

SMILES	control value (Test 1) (Phytophthora infestans)	control value (Test 2) [1]	control value (Test 3) (Plasmopara viticola)	pest or weed control at 4 µg/mL (Phytophthora infestans) [%]	pest or weed control at 4 µg/mL [1] [%]	pest or weed control at 4 µg/mL (Plasmopara viticola) [%]
O=C(Cn1nc(C(F)(F)F)cc1C(F)(F)F)N1CCC(c2nc(C3OCc4cccc(Cl)c4CO3)cs2)CC1 (stereo not drawn) [Compound 1-93]	100	100	100	–	–	–
COc1ccc(F)c2c1COC(c1csc(C3CCN(C(=O)Cn4nc(C(F)(F)F)cc4C(F)(F)F)CC3)n1)OC2 (stereo not drawn) [Compound 1-142]	100	100	100	–	–	–
COc1ccc(Br)c2c1COC(c1csc(C3CCN(C(=O)Cn4nc(C(F)(F)F)cc4C(F)(F)F)CC3)n1)OC2 (stereo not drawn) [Compound 1-82]	100	100	100	–	–	–
COc1ccc(Br)c2c1COC(c1csc(C3CCN(C(=O)Cc4cc(C)ccc4C)CC3)n1)OC2 (stereo not drawn) [Compound 2-24]	100	100	100	–	–	–
Cc1cc(C(F)(F)F)nn1CC(=O)N1CCC(c2nc(C3OCc4c(F)c(F)c(F)c(F)c4CO3)cs2)CC1 [Compound 1-17]	100	100	100	–	–	–
Cc1ccc(C)c(NC(=O)N2CCC(c3nc(C4OCc5c(F)ccc(OS(C)(=O)=O)c5CO4)cs3)CC2)c1 (stereo not drawn) [Compound 2-14]	100	100	100	–	–	–
N#Cc1cccc2c1COC(c1csc(C3CCN(C(=O)Cn4nc(C(F)(F)F)cc4C(F)(F)F)CC3)n1)OC2 (stereo not drawn) [Compound 1-150]	100	100	100	–	–	–
Cc1cc(C(F)(F)F)nn1CC(=O)N1CCC(c2nc(C3OCc4c(OS(C)(=O)=O)ccc(OS(C)(=O)=O)c4CO3)cs2)CC1 [Compound 1-103]	100	100	100	–	–	–
Cc1cc(C(F)(F)F)nn1CC(=O)N1CCC(c2nc(C3OCc4cc5c(cc4CO3)CCC5)cs2)CC1 [Compound 1-31]	100	100	100	–	–	–
O=C(Cn1nc(C(F)F)cc1C(F)F)N1CCC(c2nc(C3OCc4cccc(Cl)c4CO3)cs2)CC1 (stereo not drawn) [Compound 1-58]	100	100	100	–	–	–
COc1ccc(OS(C)(=O)=O)c2c1COC(c1csc(C3CCN(C(=O)Cn4nc(Cl)cc4Cl)CC3)n1)OC2 (stereo not drawn) [Compound 1-109, 4-[4-(6-methoxy-9-methylsulfonyloxy-1,5-dihydro-3H-2,4-benzodioxepin-3-yl)-2-thiazolyl]-1-[2-(3,5-dichloro-1H-pyrazole-1-yl)acetyl]piperidine]	–	–	–	100	100	100
Cc1cc(C(F)(F)F)nn1CC(=O)N1CCC(c2nc(C3OCc4cccc(NS(C)(=O)=O)c4CO3)cs2)CC1 (stereo not drawn) [Compound 1-43]	80	100	100	–	–	–
O=C(Cn1nc(C(F)F)cc1C(F)F)N1CCC(c2nc(C3OCc4cc5ccccc5cc4CO3)cs2)CC1 [Compound 1-77]	100	100	100	–	–	–
Cc1ccc(C)c(CC(=O)N2CCC(c3nc(C4OCc5c(OS(C)(=O)=O)ccc([N+](=O)[O-])c5CO4)cs3)CC2)c1 (stereo not drawn) [Compound 2-37]	90	100	100	–	–	–
Cc1cc(C(F)(F)F)nn1CC(=O)N1CCC(c2nc(C3OCc4c(F)ccc(OS(C)(=O)=O)c4CO3)cs2)CC1C (stereo not drawn) [Compound 1-159]	100	100	100	–	–	–
O=C(Cn1nc(C(F)(F)F)cc1C(F)(F)F)N1CCC(c2nc(C3OCc4cc5ccccc5cc4CO3)cs2)CC1 [Compound 1-89]	80	100	100	–	–	–
Cc1ccc(C)c(CC(=O)N2CCC(c3nc(C4OCc5ccc(F)c(OS(C)(=O)=O)c5CO4)cs3)CC2)c1 (stereo not drawn) [Compound 2-42]	90	100	100	–	–	–
